Results as given in patent US5387109A (priority 1992, dated 1995).

Key:
fructosylamine deglycase [1] = assay: Influence by inhibitors on the enzyme; type: biochemical, Candida guilliermondii 7087; settings: 2 mM inhibitor; 10 mM phosphate buffer pH 6.0; 37° C., 4 minutes
Procedure: The influence of a 2 mM inhibitor on the enzyme was as follows: […]

fructosylamine deglycase [2] = assay: Substrate specificity of the enzyme to amadori compounds (colorimetric determination of hydrogen peroxide formed); type: biochemical, Candida guilliermondii 7087
Procedure: 0.1 ml of 1 mM di-fructosyl-lysine (as dissolved in 0.05M phosphate buffer pH 7.0) is added to 0.4 ml of 0.05M phosphate buffer (pH 7.0) containing 0.3 mM 4-aminoantipyrine, 0.5 mM N-ethyl-N-(2-hydroxy-3-sulfopropyl)-m-toluidine (TOOS) and 2.0 U/ml peroxidase, and the temperature of the resulting system is equilibrated at 37° C. To this is added 0.06 ml of the enzyme solution having a suitable activity, whereupon the variation of the absorbance of the system is measured with a spectrophotometer (U-2000 Model, manufactured by Hitachi Ltd. ). From the calibration curve as formed from a standard solution containing a determined amount of hydrogen peroxide to indicate the relation between the variation of the absorbance and the amount of hydrogen peroxide, the amount of the hydrogen peroxide as formed in the test system is obtained. The amount of the enzyme of forming one micromole of hydrogen peroxide per one minute is defined to be one activity unit.
0.2 ml of 1 mM di-fructosyl-lysine (as dissolved in 0.05M phosphate buffer pH 7.0) is prepared, and the temperature of it is equilibrated at 37° C. To this is added 0.12 ml of the enzyme solution having a suitable activity and reacted for a suitable period of time at 37° C., and the reaction is stopped in a hot water bath of 100° C. To this is added 0.8 ml of 0.05M phosphate buffer (pH 7.0) containing 0.3 mM 4-aminoantipyrine, 0.5 mM TOOS and 2.0 U/ml peroxidase, whereupon the variation of the absorbance of the system is measured with a spectrophotometer (U-2000 Model, manufactured by Hitachi Ltd. ). From the calibration curve as formed from a standard solution containing a determined amount of hydrogen peroxide to indicate the relation between the variation of the absorbance and the amount of hydrogen peroxide, the amount of the hydrogen peroxide as formed in the test system is obtained. The amount of the enzyme of forming one micromole of hydrogen peroxide per one minute is defined to be one activity unit.
The enzyme catalyzes the reaction of decomposing amadori compounds of α-amino acids, β-amino acids, ε-amino acids, D-amino acids and amines to form a glucosone, hydrogen peroxide and the corresponding amino acid or amine. The enzyme not only decomposes amadori compounds of α-amino acids but also effectively acts on other amadori compounds having fructose as bonded to amino groups as positioned in other positions than the α-position of amino acids (for example, di-D-fructosyl-lysine, ε-D-fructosyl-L-lysine).
The concentration of the substrate as employed for the measurement was 2 mM, except for the use of 1 mM for di-D-fructosyl-lysine.
The data of the activity are relative values to the activity to D-fructosyl-glycine being 100.

Compound | Inhibition of the enzyme (fructosylamine deglycase [1]) | Activity of the Enzyme (relative values to the activity to D-fructosyl-glycine being 100) (fructosylamine deglycase [2]; substrate concentration 2 mM) | other results
[Co+2] [Co^2+] | strongly inhibited | – | –
[Cu+2] [Cu^2+] | strongly inhibited | – | –
C[C@@H](NCC(=O)[C@@H](O)[C@H](O)[C@H](O)CO)C(=O)O [D-fructosyl-D-alanine] | – | 26 | –
C[C@H](NCC(=O)[C@@H](O)[C@H](O)[C@H](O)CO)C(=O)O [D-fructosyl-L-alanine] | – | 251 | –
N[C@@H](CCCCNCC(=O)[C@@H](O)[C@H](O)[C@H](O)CO)C(=O)O [D-fructosyl-L-lysine] | – | 1386 | –
O=C(O)[C@H](Cc1ccccc1)NCC(=O)[C@@H](O)[C@H](O)[C@H](O)CO [D-fructosyl-L-phenylalanine] | – | 36 | –
O=C(CN1CCC[C@H]1C(=O)O)[C@@H](O)[C@H](O)[C@H](O)CO [D-fructosyl-L-proline] | – | 1348 | –
O=C(O)CNCC(=O)[C@@H](O)[C@H](O)[C@H](O)CO [D-fructosyl-glycine] | – | 100 | –
CNCC(=O)[C@@H](O)[C@H](O)[C@H](O)CO [D-fructosyl-methylamine] | – | 105 | –
CN(CC(=O)O)CC(=O)[C@@H](O)[C@H](O)[C@H](O)CO [D-fructosyl-sarcosine] | – | 63 | –
O=C(O)CCNCC(=O)[C@@H](O)[C@H](O)[C@H](O)CO [D-fructosyl-β-alanine] | – | 44 | –
[Mg+2] [Mg^2+] | not inhibited | – | –
[N-]=[N+]=[N-].[Na+] [NAN3] | not inhibited | – | –
[Ni+2] [Ni^2+] | strongly inhibited | – | –
[Zn+2] [Zn^2+] | strongly inhibited | – | –
O=C(O)c1cc[c]([Hg][Cl])cc1 [p-chloromercuribenzoic acid] | strongly inhibited | – | –
D-fructosyl-polylysine | – | 34 | –
Di-D-fructosyl-lysine | – | – | Activity of the Enzyme (relative values to the activity to D-fructosyl-glycine being 100) (fructosylamine deglycase [2]; substrate concentration 1 mM): 3500
